Earlier results as cited in patent publication US20150093449A1, “Method of Using Silicon Substituted Phosphates to Improve Healing of Bone and Soft Tissue” (priority 2009, published 2015).

Tested on: staph epidermis

For silicon, the glycoprotein slime formation is listed as “inhibits”.
